Assay results: the supplement of paper PMC10307832

How the values were obtained:
Assay in all cases: relative viability (nuclei count vs DMSO), 5 days (fraction); higher = more cells survive
IDH-C35 + Pictilisib = compound: Cc1ccccc1C(C(=O)NC1CCCCC1)N(C(=O)Cn1ccnc1C)c1cccc(F)c1 [IDH-C35] + CS(=O)(=O)N1CCN(Cc2cc3nc(-c4cccc5[nH]ncc45)nc(N4CCOCC4)c3s2)CC1 [Pictilisib] (partner 1 µM)
How it was run: (§1)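 The day after seeding in 1536-well plates, lung cancer cell lines were treated by pin tool with a single drug, or with a fixed anchor-drug dose together with five library-drug doses (not always all listed) in √10 steps. After 5 days, a combined fix-and-stain solution (final 0.05% Triton X-100, 1% formaldehyde, 1 ug/ml Hoechst) was added. Nuclei counted on 4× images gave relative viability as treated counts over vehicle counts, reported as the median of duplicate plates.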

IDH-C35 + Foretinib = compound: Cc1ccccc1C(C(=O)NC1CCCCC1)N(C(=O)Cn1ccnc1C)c1cccc(F)c1 [IDH-C35] + COc1cc2c(Oc3ccc(NC(=O)C4(C(=O)Nc5ccc(F)cc5)CC4)cc3F)ccnc2cc1OCCCN1CCOCC1 [Foretinib] (partner 0.25 µM)
How it was run: as §1

[1] = compound: CC1=C(C(=NN1)C)CC2=C(C3=C(S2)N(C(=O)N(C3=O)C)CC(C)C)C(=O)N4C[C@@H](CO4)O
How it was run: (§2)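 In 1536-well plates, lung cancer cell lines rested overnight at 37 °C before five library-drug doses (not always all listed), √10 apart, were pinned onto vehicle-anchored plates. Nuclei were counted with MetaXpress from 4× Hoechst images taken after 5 days without medium change. Viability compares treated-well with vehicle-well nuclei as a median over plates, and plates needed control CV below 25% plus at least one doubling to pass.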

IDH-C35 = compound: Cc1ccccc1C(C(=O)NC1CCCCC1)N(C(=O)Cn1ccnc1C)c1cccc(F)c1 [IDH-C35]
How it was run: as §2

UMC-11
relative viability (IDH-C35 + Pictilisib; first compound 0.08 µM): 0.874
relative viability (IDH-C35 + Pictilisib; first compound 0.253 µM): 0.794
relative viability (IDH-C35 + Pictilisib; first compound 0.8 µM): 0.759
relative viability (IDH-C35 + Pictilisib; first compound 2.53 µM): 0.79
relative viability (IDH-C35 + Pictilisib; first compound 8 µM): 0.889
relative viability (IDH-C35 + Foretinib; first compound 0.08 µM): 0.889
relative viability (IDH-C35 + Foretinib; first compound 0.253 µM): 1.07
relative viability (IDH-C35 + Foretinib; first compound 0.8 µM): 0.997
relative viability (IDH-C35 + Foretinib; first compound 2.53 µM): 1.06
relative viability (IDH-C35 + Foretinib; first compound 8 µM): 1.11
relative viability ([1]; 0.0025 µM): 1.08
relative viability ([1]; 0.007906 µM): 1.04
relative viability ([1]; 0.025 µM): 0.974
relative viability ([1]; 0.07906 µM): 0.993
relative viability ([1]; 0.25 µM): 1.18
relative viability (IDH-C35; 0.08 µM): 1.03
relative viability (IDH-C35; 0.253 µM): 0.975
relative viability (IDH-C35; 0.8 µM): 0.986
relative viability (IDH-C35; 2.53 µM): 0.951
relative viability (IDH-C35; 8 µM): 1.02
